Target: Methionine aminopeptidase 2 (Homo sapiens) (UniProt P50579)
Assay: Induction of MetAP-2 degradation in human HeLa cells at 10 uM relative to control
Type: cell-based

Methionine aminopeptidase 2 (Homo sapiens), sequence (P50579 2-478 limits assumed): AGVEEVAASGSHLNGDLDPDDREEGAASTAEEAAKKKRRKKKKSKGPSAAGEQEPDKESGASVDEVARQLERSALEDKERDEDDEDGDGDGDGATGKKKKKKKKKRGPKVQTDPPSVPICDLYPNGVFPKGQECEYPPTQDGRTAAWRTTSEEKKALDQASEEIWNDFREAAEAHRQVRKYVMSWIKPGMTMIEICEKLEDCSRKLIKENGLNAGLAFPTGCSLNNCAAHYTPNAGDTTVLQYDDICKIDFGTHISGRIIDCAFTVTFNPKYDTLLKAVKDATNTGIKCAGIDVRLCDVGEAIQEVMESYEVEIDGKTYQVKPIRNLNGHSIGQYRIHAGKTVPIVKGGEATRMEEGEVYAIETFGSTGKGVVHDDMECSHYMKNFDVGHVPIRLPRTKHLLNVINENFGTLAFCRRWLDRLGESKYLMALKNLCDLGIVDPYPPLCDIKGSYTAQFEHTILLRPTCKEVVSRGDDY

Activity: 80%
Structure (SMILES): CO[C@@H]1[C@H](OC(=O)NCCCOCCOCCOCCCNC(=O)[C@H](CSc2nc3c(=O)[nH]c(N)nc3n2Cc2ccc(F)cc2)NC(C)=O)CC[C@]2(CO2)[C@H]1[C@@]1(C)O[C@@H]1CC=C(C)C
